pIC50: −log10 of the molar value.
System: 695427-040-R-J1-PDC complex spheroid viability
Assay: Anticancer human tumor 695427-040-R-J1-PDC patient-derived colon adenocarcinoma cell line growth inhibition [POLQ]
Conditions: for pIC50: curve of first compound; for viability, T/C: stronger effect = lower value; active means viability on the fitted dose curve at most 10% of control; inactive means the rest
Summary of the method: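 Complex spheroid viability model combining PDC tumour cells with endothelial (HUVEC) and MSC stromal cells. Novobiocin, ART-558 or RP6685 were tested singly and in combination with standard and investigational anticancer drugs. Each was titrated in half-log steps from near clinical Cmax, or from 10 microM where Cmax was unknown.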

[1] = second compound 0.0316 µM, first compound 0.0316 µM
[2] = second compound 0.0316 µM, first compound 0.1 µM
[3] = second compound 0.0316 µM, first compound 0.316 µM
[4] = second compound 0.0316 µM, first compound 1 µM
[5] = second compound 0.0316 µM, first compound 3.16 µM
[6] = second compound 0.0316 µM, first compound 10 µM
[7] = second compound 0.1 µM, first compound 0.0316 µM
[8] = second compound 0.1 µM, first compound 0.1 µM
[9] = second compound 0.1 µM, first compound 0.316 µM
[10] = second compound 0.1 µM, first compound 1 µM
[11] = second compound 0.1 µM, first compound 3.16 µM
[12] = second compound 0.1 µM, first compound 10 µM
[13] = second compound 0.316 µM, first compound 0.0316 µM
[14] = second compound 0.316 µM, first compound 0.1 µM
[15] = second compound 0.316 µM, first compound 0.316 µM
[16] = second compound 0.316 µM, first compound 1 µM
[17] = second compound 0.316 µM, first compound 3.16 µM
[18] = second compound 0.316 µM, first compound 10 µM
[19] = second compound 1 µM, first compound 0.0316 µM
[20] = second compound 1 µM, first compound 0.1 µM
[21] = second compound 1 µM, first compound 0.316 µM
[22] = second compound 1 µM, first compound 1 µM
[23] = second compound 1 µM, first compound 3.16 µM
[24] = second compound 1 µM, first compound 10 µM
[25] = second compound 3.16 µM, first compound 0.0316 µM
[26] = second compound 3.16 µM, first compound 0.1 µM
[27] = second compound 3.16 µM, first compound 0.316 µM
[28] = second compound 3.16 µM, first compound 1 µM
[29] = second compound 3.16 µM, first compound 3.16 µM
[30] = second compound 3.16 µM, first compound 10 µM
[31] = second compound 10 µM, first compound 0.0316 µM
[32] = second compound 10 µM, first compound 0.1 µM
[33] = second compound 10 µM, first compound 0.316 µM
[34] = second compound 10 µM, first compound 1 µM
[35] = second compound 10 µM, first compound 3.16 µM
[36] = second compound 10 µM, first compound 10 µM
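Further: spheroids exposed to compounds for seven days.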
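Wherever viability, T/C is given: 100% = DMSO vehicle control viability.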

O=C(c1cc(Cc2n[nH]c(=O)c3ccccc23)ccc1F)N1CCN(C(=O)C2CC2)CC1 + Cc1cccc(N(C)C(=O)C2C(O)CCN2c2nc(C)cc(C(F)(F)F)c2C#N)c1
inactive: viability, T/C [1] 107% | viability, T/C [2] 98.3% | viability, T/C [3] 101% | viability, T/C [4] 103% | viability, T/C [5] 104% | viability, T/C [6] 93.9% | viability, T/C [7] 111% | viability, T/C [8] 101% | viability, T/C [9] 97.9% | viability, T/C [10] 100% | viability, T/C [11] 113% | viability, T/C [12] 95.3% | viability, T/C [13] 109% | viability, T/C [14] 101% | viability, T/C [15] 99% | viability, T/C [16] 93.1% | viability, T/C [17] 98.4% | viability, T/C [18] 96.9% | viability, T/C [19] 98.5% | viability, T/C [20] 94.5% | viability, T/C [21] 97.6% | viability, T/C [22] 92.8% | viability, T/C [23] 101% | viability, T/C [24] 91.2% | viability, T/C [25] 103% | viability, T/C [26] 94% | viability, T/C [27] 102% | viability, T/C [28] 91.4% | viability, T/C [29] 103% | viability, T/C [30] 103% | viability, T/C [31] 89.4% | viability, T/C [32] 88% | viability, T/C [33] 97.9% | viability, T/C [34] 90.4% | viability, T/C [35] 92.3% | viability, T/C [36] 78.9%
< 5.00: pIC50 (second compound 0.0316 µM) | pIC50 (second compound 0.1 µM) | pIC50 (second compound 0.316 µM) | pIC50 (second compound 1 µM) | pIC50 (second compound 3.16 µM) | pIC50 (second compound 10 µM)

CC(C)n1c(=O)n(C)c2cnc3cc(F)c(-c4ccc(OCCCN5CCCCC5)nc4)cc3c21 + Nc1ccc(C#CCN(C(=O)Cc2ncc(C(F)(F)F)cc2C(F)(F)F)c2ccc(F)cc2)nn1
inactive: viability, T/C [1] 103% | viability, T/C [2] 105% | viability, T/C [3] 112% | viability, T/C [4] 110% | viability, T/C [5] 100% | viability, T/C [6] 91.4% | viability, T/C [7] 106% | viability, T/C [8] 109% | viability, T/C [9] 115% | viability, T/C [10] 107% | viability, T/C [11] 108% | viability, T/C [12] 81.9% | viability, T/C [13] 114% | viability, T/C [14] 112% | viability, T/C [15] 103% | viability, T/C [16] 110% | viability, T/C [17] 106% | viability, T/C [18] 91.8% | viability, T/C [19] 102% | viability, T/C [20] 98.9% | viability, T/C [21] 116% | viability, T/C [22] 106% | viability, T/C [23] 115% | viability, T/C [24] 82.4% | viability, T/C [25] 107% | viability, T/C [26] 100% | viability, T/C [27] 105% | viability, T/C [28] 104% | viability, T/C [29] 96% | viability, T/C [30] 79.6% | viability, T/C [31] 99.7% | viability, T/C [32] 90.1% | viability, T/C [33] 101% | viability, T/C [34] 108% | viability, T/C [35] 95.4% | viability, T/C [36] 88%
< 5.00: pIC50 (second compound 0.0316 µM) | pIC50 (second compound 0.1 µM) | pIC50 (second compound 0.316 µM) | pIC50 (second compound 1 µM) | pIC50 (second compound 3.16 µM) | pIC50 (second compound 10 µM)

CNCc1ccc(-c2[nH]c3cc(F)cc4c3c2CCNC4=O)cc1 + Cc1cccc(N(C)C(=O)C2C(O)CCN2c2nc(C)cc(C(F)(F)F)c2C#N)c1
inactive: viability, T/C [1] 102% | viability, T/C [2] 104% | viability, T/C [3] 105% | viability, T/C [4] 96.8% | viability, T/C [5] 108% | viability, T/C [6] 109% | viability, T/C [7] 111% | viability, T/C [8] 100% | viability, T/C [9] 95.9% | viability, T/C [10] 95.3% | viability, T/C [11] 105% | viability, T/C [12] 108% | viability, T/C [13] 104% | viability, T/C [14] 99.3% | viability, T/C [15] 104% | viability, T/C [16] 103% | viability, T/C [17] 102% | viability, T/C [18] 99.6% | viability, T/C [19] 92.7% | viability, T/C [20] 93.9% | viability, T/C [21] 93.6% | viability, T/C [22] 98% | viability, T/C [23] 110% | viability, T/C [24] 102% | viability, T/C [25] 99% | viability, T/C [26] 98.1% | viability, T/C [27] 98.4% | viability, T/C [28] 103% | viability, T/C [29] 108% | viability, T/C [30] 104% | viability, T/C [31] 92.3% | viability, T/C [32] 92.1% | viability, T/C [33] 88.9% | viability, T/C [34] 93.2% | viability, T/C [35] 104% | viability, T/C [36] 104%
< 5.00: pIC50 (second compound 0.0316 µM) | pIC50 (second compound 0.1 µM) | pIC50 (second compound 0.316 µM) | pIC50 (second compound 1 µM) | pIC50 (second compound 3.16 µM) | pIC50 (second compound 10 µM)
